# Assay results published in patent US20190327974A1, “SYNERGISTS FOR IMPROVED PESTICIDES” (priority 2017, published 2019).
# Changes are numbered by the printed parent chain. Marks after values point to notes of the source that are not given here.
# What was measured:
# [1] = molecular target: Culex quinquefasciatus CBE (Culex quinquefasciatus, UniProt Q23734); experiment: Inhibition of insect CBEs, 4-NPB substrate; assay type: biochemical; conditions: n=3
# Experimental: (§1) Assays were performed with 4-NPB as the substrate.
# [2] = molecular target: Aedes aegypti CBE; experiment: Inhibition of insect CBEs, 4-NPB substrate; assay type: biochemical; conditions: n=3
# Experimental: as §1
# [3] = molecular target: Anopheles gambiae CBE; experiment: Inhibition of insect CBEs, 4-NPB substrate; assay type: biochemical; conditions: n=3
# Experimental: as §1
# [4] = molecular target: T1, Gly137Asp LcαE7 (Lucilia cuprina, UniProt Q25252, G137D); experiment: Enzyme inhibition assay with 4-nitrophenol butyrate, Gly137Asp variant; assay type: biochemical
# T1 sequence (Q25252 1-570 G137D): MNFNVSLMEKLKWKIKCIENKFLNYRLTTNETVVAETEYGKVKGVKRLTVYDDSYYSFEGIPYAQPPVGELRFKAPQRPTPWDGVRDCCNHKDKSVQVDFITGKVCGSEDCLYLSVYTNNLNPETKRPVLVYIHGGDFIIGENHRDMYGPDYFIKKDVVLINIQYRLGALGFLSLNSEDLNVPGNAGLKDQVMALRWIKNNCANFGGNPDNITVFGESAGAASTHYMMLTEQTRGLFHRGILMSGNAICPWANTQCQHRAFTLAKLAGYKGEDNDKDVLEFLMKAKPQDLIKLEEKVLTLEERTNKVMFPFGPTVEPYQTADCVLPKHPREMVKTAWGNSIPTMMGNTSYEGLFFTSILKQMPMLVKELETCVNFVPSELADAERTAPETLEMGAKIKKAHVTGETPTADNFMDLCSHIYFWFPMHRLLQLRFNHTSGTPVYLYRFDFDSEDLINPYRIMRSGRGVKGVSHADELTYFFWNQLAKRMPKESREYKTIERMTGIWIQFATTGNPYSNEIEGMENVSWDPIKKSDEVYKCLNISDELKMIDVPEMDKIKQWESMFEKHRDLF
# Experimental: (§2) Inhibition of wild-type αE7 and the Gly137Asp αE7 variant was determined by a competition assay between the native-substrate analogue 4-nitrophenol butyrate (Sigma) and the boronic acid compounds. Initially, the Michalis constant (KM) with 4-nitrophenol butyrate was measured for both enzymes to determine an appropriate concentration of substrate for use in the competition assays. Formation of the 4-nitrophenolate product of hydrolysis was monitored at 405 nm in the presence of enzyme and eight different concentrations of substrate. 4-nitrophenol butyrate was prepared in methanol to 100 mM and serially diluted 1-in-2 to achieve concentrations from 100 mM to 0.8 mM. Enzyme stocks were prepared in 4 mg/ml bovine serum albumin (Sigma) to maintain enzyme stability. Reactions were prepared by pipetting 178 μl assay buffer (100 mM NaCl, 20 mM HEPES pH 7.5) and 2 μl substrate (final concentrations of 1000 to 8 μM) into 300 μl wells of a 96-well plate. The reaction was initiated by the addition of 20 μl enzyme (final concentration 2.5 nM for wildtype αE7 and 4 nM for Gly137Asp αE7). Product formation was monitored for four minutes at room temperature using an Epoch microplate spectrophotometer (BioTek) and the initial rates of ester hydrolysis were determined by linear regression using GraphPad Prism. The Michalis constant was determined by fitting the initial rates to the Michalis-Menton equation (FIG. 10).
# (§3) Enzyme inhibition with the boronic acid compounds was determined by assaying the initial rate of 4-nitrophenol butyrate hydrolysis in the presence of either neat DMSO or the boronic acid compounds in DMSO. Compounds were prepared by serially diluting 1-in-3 an initial 10 mM stock to achieve concentrations from 10 mM to 2 nM. Reactions were prepared by pipetting 178 μl assay buffer supplemented with substrate to a final concentration equal to the KM of the enzyme (15 μM for wildtype αE7 and 250 μM for Gly137Asp αE7) into wells of a 96-well plate. 2 μl neat DMSO or 2 μl serially diluted inhibitor (final concentrations of 100 μM to 20 pM) were added to the wells. The reaction was initiated by the addition of 20 μl enzyme (final concentration 0.5 nM for wildtype αE7 and 10 nM for Glyl37Asp αE7). Product formation was monitored for four minutes at room temperature and the initial rates of ester hydrolysis were determined by linear regression. To determine the concentration of boronic acid compounds required to inhibit 50% of esterase activity (IC50), a four-parameter sigmoidal dose-response curve was fitted to percentage inhibition using GraphPad Prism (FIGS. 7 and 8). Ki values were determined using the Cheng-Prusoff equation assuming competitive inhibition (Yung-Chi, C. & Prusoff W. H. Relationship between the inhibition constant (KI) and the concentration of inhibitor which causes 50 percent inhibition (150) of an enzymatic reaction. Biochem. Pharmacol. 22, 3099-3108 (1973)).
# The two most common CBE-mediated insecticide resistance mechanisms involve increased protein expression, or mutation to gain new catalytic (OP-hydrolase) functions. Compounds 1 to 5 were tested against the resistance associated Gly137Asp variant of LcαE7^17,27 (Table 1). The Glyl37Asp mutation is located in the oxyanion hole and positions a new general base in the active site to catalyze dephosphorylation of the catalytic serine. Thus, compounds that inhibit WT LcαE7 as well as this common resistance associated Glyl37Asp variant would increase the efficacy of OPs by targeting both detoxification routes. Encouraged by the activity of the boronic acids 1 to 5, the compounds were tested against the Gly137Asp variant of LcαE7 (Table 1).
# [5] = molecular target: T2, wildtype LcαE7 (Lucilia cuprina, UniProt Q25252); experiment: Enzyme inhibition assay with 4-nitrophenol butyrate, wild-type; assay type: biochemical
# T2 sequence (Q25252 1-570): T1 sequence (Q25252 1-570 G137D) with D137G
# Experimental: Wild-type LcαE7 was heterologously expressed in Escherichia coli and purified using metal ion affinity and size exclusion chromatography. The potency of the boronic acids was determined by enzymatic assays of recombinant LcαE7 with the model carboxylester substrate 4-nitrophenol butyrate.
# as §2, §3
# [6] = molecular target: T3, Gly137Asp LcαE7 (Gly137Asp variant of αE7 carboxylesterase) (Lucilia cuprina, UniProt Q25252, G137D); experiment: Inhibition of Gly137Asp αE7 (competition assay, hydrolysis of 4-nitrophenol butyrate), dose-response curves of FIG. 8; assay type: biochemical
# T3 construct: GenBank number is of the wild-type parent
# Experimental: FIG. 8 presents dose-response curves for the inhibition of Glyl37Asp αE7. Inhibition of the hydrolysis of […] was determined for phenyl boronic acid (PBA) and compounds 1-5 and 3.1-3.12. Three (technical) replicate measurements of enzyme activity were performed for each concentration of boronic acid. The concentration of boronic acid required to inhibit 50% of activity (IC50) was determined by fitting a sigmoidal dose-response curve to plots of percentage inhibition. The curve was constrained to 0 (bottom) and 100% (top) inhibition with a variable Hill slope. […]
# His6-tagged proteins were expressed in BL21(DE3) E. coli (Invitrogen) at 26° C. for 18 hours. Cells were collected by centrifugation, resuspended in lysis buffer (300 mM NaCl, 10 mM imidazole, 50 mM HEPES pH 7.5) and lysed by sonication. Cell debris was pelleted by centrifugation and the soluble fraction was loaded onto a HisTrap-HP Ni-Sepharose column (GE Healthcare). Bound protein was eluted with lysis buffer supplemented with 300 mM imidazole. Fractions containing the eluted protein were concentrated with a 30 kDa molecular mass cutoff centrifuge concentrator (Amicon) and loaded onto a HiLoad 26/60 Superdex-200 size-exclusion column (GE Healthcare) pre-equilibrated with 150 mM NaCl, 20 mM HEPES pH 7.5. Eluted fractions containing the monomeric protein were pooled for enzyme inhibition assays or crystallization. Protein concentration was determined by measuring the absorbance at 280 nm with an extinction coefficient calculated using the Protparam online server (Gasteiger, E. et al. Protein identification and analysis tools on the ExPASy server. Proteomics Protoc. Handb. 571-607 (2005). doi:10.1385/1-59259-890-0:571).
# as §2
# Enzyme inhibition with the boronic acid compounds was determined by assaying the initial rate of 4-nitrophenol butyrate hydrolysis in the presence of either neat DMSO or the boronic acid compounds in DMSO. Compounds were prepared by serially diluting 1-in-3 an initial 10 mM stock to achieve concentrations from 10 mM to 2 nM. Reactions were prepared by pipetting 178 μl assay buffer supplemented with substrate to a final concentration equal to the KM of the enzyme (15 μM for wildtype αE7 and 250 μM for Gly137Asp αE7) into wells of a 96-well plate. 2 μl neat DMSO or 2 μl serially diluted inhibitor (final concentrations of 100 μM to 20 pM) were added to the wells. The reaction was initiated by the addition of 20 μl enzyme (final concentration 0.5 nM for wildtype αE7 and 10 nM for Glyl37Asp αE7). […]
# [7] = tested on: Lucilia cuprina larvae, laboratory drug-susceptible strain LS; experiment: Lucilia cuprina larval bioassay (pupation rate), laboratory strain; assay type: in vivo; conditions: laboratory (LS) strain; pupation rate; boronic acid, where present, at 1 mg/assay
# Experimental: Inhibitor efficacy was determined by treating larvae with diazinon over a range of concentrations, in the presence or absence of the compounds at constant concentrations, and comparing pupation rates.
# (§4) Two strains of L. cuprina were used: 1) a laboratory reference drug-susceptible strain, LS, derived from collections in the Australian Capital Territory over 40 years ago, with no history of exposure to insecticides; and 2) a field-collected strain, Tara, resistant to diazinon and diflubenzuron (Levot, G. W. & Sales, N. New high level resistance to diflubenzuron detected in the Australian sheep blowfly, Lucilia cuprina (Wiedemann) (Diptera: Calliphoridae). Gen. Appl. Entomol. 31, 43-46 (2002)). The LcαE7 gene was sequenced in each of the strains. Briefly, genomic DNA was prepared from 20 adult female flies from each strain using the DNeasy Blood and Tissue kit (Qiagen). PCR was performed with primers specific to the LcαE7 gene, and the product was cloned into a pGEM-T EASY vector (Promega). Eight clones of the susceptible strain and 10 clones of the resistant strain were sequenced using M13 forward and reverse primers.
# Each experiment utilized 50 larvae at each diazinon/malathion concentration. Experiments were replicated three times for diazinon, and twice for malathion. The insecticidal effects were defined by measuring the pupation rate. […] Compounds were also without diazinon or malathion at 1 mg per assay.
# [8] = tested on: Lucilia cuprina larvae, field strain Tara resistant to diazinon; experiment: Lucilia cuprina larval bioassay (pupation rate), field strain; assay type: in vivo
# Source text: Diazinon resistance is typically associated with the Gly137Asp mutation/resistance allele. […] This is consistent with previous results showing that duplications of the chromosomal region containing αE7 have occurred, meaning that resistant strains now carry copies of both WT and Glyl37Asp LcαE7.
# as §4
# The effect of compounds 2, 3, 5, 3.9 and 3.10 on the development of blowfly larvae in the presence of diazinon/malathion was assessed using a bioassay system in which larvae were allowed to develop from the first instar stage until pupation on cotton wool impregnated with diazinon/malathion over a range of concentrations, in the presence or absence of the compounds at constant concentrations (Kotze, A. C. et al. Histone deacetylase enzymes as drug targets for the control of the sheep blowfly, Lucilia cuprina. Int. J. Parasitol. Drugs Drug Resist. 5, 201-208 (2015)). Each experiment utilized 50 larvae at each diazinon/malathion concentration. Experiments were replicated three times for diazinon, and twice for malathion. The insecticidal effects were defined by measuring the pupation rate. […] Compounds were also without diazinon or malathion at 1 mg per assay.
SMILES,Ki [1],Ki [2],Ki [3],further results
OB(O)c1cc2ccc(OCc3ccccc3)cc2[nH]1 [Compound C10],0.19 µM,0.01 µM,0.08 µM,–
OB(O)c1ccc(COc2ccc(Cl)c3ccccc23)cc1 [Compound C21],0.14 µM,10 µM,0.2 µM,–
OB(O)c1cc(Cl)cc(N2CCCC2)c1 [Compound 3.2],–,–,–,Ki [4]: 0.21 µM; Ki [5]: 0.00035 µM; IC50 [6]: 0.4 µM
"CCOC(=O)CC(SP(=S)(OC)OC)C(=O)OCC (centres unmarked) [Mal alone, malathion, reference compound]",–,–,–,Malathion dose response EC50 [7]: 2.06 μg/assay
O=C(Nc1ccccc1Cl)c1cc(B(O)O)ccc1Cl [Compound C2],3.6 µM,37 µM,0.42 µM,–
"CCOP(=S)(OCC)Oc1cc(C)nc(C(C)C)n1 [Dz alone, diazinon]",–,–,–,"RR = resistance ratio ([8]; EC50 with the field strain/EC50 for Dz alone for the laboratory strain): 2.86 ^#; diazinon EC50 for the field strain compared to the laboratory strain ([8]; absence of the boronic acids, fold higher): 2.9 fold; Diazinon dose response EC50 ([8]; field (Tara) strain, pupation rate, boronic acid, where present, at 1 mg/assay): 2.29 μg/assay; Diazinon dose response EC50 [7]: 0.80 μg/assay"
